# Data published in US8883788B2, “Fused heterocyclic ring compound” (Takeda Pharmaceutical Company Limited, priority 2010, dated 2014).
# Biological target: T1, human PDE10A enzyme (Homo sapiens, UniProt Q9Y233)
# T1 construct: Human PDE10A full-length gene was transfected into Sf9 or COS-7 cells; His-tag; made in house; host or cells: Sf9 or COS-7 cells
# Assay: PDE10A enzyme activity inhibition test (SPA)
# Type: biochemical
# Details: compound 1 μM, substrate [3H]cGMP, 60 min at room temperature, read-out: inhibition rate (%) (1 μM)
# Method: Human PDE10A full-length gene was transfected into Sf9 or COS-7 cells. The cells were disrupted and centrifuged, and human PDE10A enzyme was obtained from the residue. The enzyme extracted from Sf9 cells was partially purified using His-tag affinity column. The enzyme was stored at −70° C. until use. The PDE activity was measured using an SPA (Scintillation Proximity Assay) (GE Healthcare). To measure the inhibitory activity of the compound, 10 μL of serially diluted compound was reacted with 20 μL of PDE enzyme in an assay buffer (50 mM HEPES-NaOH, 8.3 mM MgCl2, 1.7 mM EGTA, 0.1% BSA (pH 7.4)) […] at room temperature. The final concentration of DMSO in the reaction mixture was 1 percent. The compounds were evaluated in duplicate in 96-well half-area plates (Corning). To start the reaction, 10 μL of substrate [^3H] cGMP (25 and 50 nM; GE Healthcare and PerkinElmer, respectively) was added to 40 μL. After 60 min of reaction at room temperature, yttrium SPA beads containing zinc sulphate were added (6 mg/mL, 20 μL) to terminate the reaction. After standing still for 1 hr, the measurement was performed using a scintillation counter (PerkinElmer) and the inhibition rate was calculated. The inhibition rate was calculated based on the control containing enzyme and DMSO as 0% and the control without enzyme as 100%.
# T1 sequence (Q9Y233 267-1055): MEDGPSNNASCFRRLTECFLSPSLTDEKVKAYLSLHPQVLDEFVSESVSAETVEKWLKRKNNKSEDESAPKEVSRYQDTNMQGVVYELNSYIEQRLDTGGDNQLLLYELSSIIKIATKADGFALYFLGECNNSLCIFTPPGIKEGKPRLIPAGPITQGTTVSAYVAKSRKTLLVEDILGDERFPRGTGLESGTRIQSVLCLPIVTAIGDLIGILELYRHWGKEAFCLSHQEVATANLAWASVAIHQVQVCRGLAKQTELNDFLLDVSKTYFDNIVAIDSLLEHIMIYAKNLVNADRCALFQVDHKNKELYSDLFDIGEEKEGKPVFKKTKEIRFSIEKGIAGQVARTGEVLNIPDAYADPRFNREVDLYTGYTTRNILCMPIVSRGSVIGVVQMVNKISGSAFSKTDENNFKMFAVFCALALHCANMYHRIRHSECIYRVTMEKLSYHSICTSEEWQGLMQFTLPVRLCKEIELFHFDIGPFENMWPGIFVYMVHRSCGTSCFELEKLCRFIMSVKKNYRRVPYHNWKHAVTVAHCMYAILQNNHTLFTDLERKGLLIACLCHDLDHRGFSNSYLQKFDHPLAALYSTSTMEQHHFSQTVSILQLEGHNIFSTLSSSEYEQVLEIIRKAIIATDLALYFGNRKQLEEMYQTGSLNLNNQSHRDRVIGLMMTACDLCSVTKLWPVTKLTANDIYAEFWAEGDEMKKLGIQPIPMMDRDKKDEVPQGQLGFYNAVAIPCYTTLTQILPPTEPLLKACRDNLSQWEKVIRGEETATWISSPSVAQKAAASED
row,Compound,inhibition at 1 µM
1,"O=c1c(OCCN2CCn3c2nc2ccccc23)cn(CC2CC2)nc1-c1ccnn1-c1ccccc1 [Example 4, 1-(cyclopropylmethyl)-5-[2-(2,3-dihydro-1H-imidazo[1,2-a]benzimidazol-1-yl)ethoxy]-3-(1-phenyl-1H-pyrazol-5-yl)pyridazin-4(1H)-one]",100%
2,"Cn1c(OCCOc2cn(C3CCC3)nc(-c3ccnn3-c3ccccc3)c2=O)nc2ccccc21 [Example 23, 1-cyclobutyl-5-{2-[(1-methyl-1H-benzimidazol-2-yl)oxy]ethoxy}-3-(1-phenyl-1H-pyrazol-5-yl)pyridazin-4(1H)-one]",100%
3,"O=c1c(OCCN2CCn3c2nc2ccccc23)cn(C2CCC2)nc1-c1ccnn1-c1ccccc1 [Example 22, 1-cyclobutyl-5-[2-(2,3-dihydro-1H-imidazo[1,2-a]benzimidazol-1-yl)ethoxy]-3-(1-phenyl-1H-pyrazol-5-yl)pyridazin-4 (H)-one]",98%
4,"Cn1cc(OCCCc2cn3ccccc3n2)c(=O)c(-c2ccnn2-c2ccccc2)n1 [Example 11, 5-(3-imidazo[1,2-a]pyridin-2-ylpropoxy)-1-methyl-3-(1-phenyl-1H-pyrazol-5-yl)pyridazin-4(1H)-one]",100%
5,"Cn1cc(OCCN2CCn3c2nc2ccccc23)c(=O)c(-c2ccnn2-c2ccccc2)n1 [Example 2, 5-[2-(2,3-dihydro-1H-imidazo[1,2-a]benzimidazol-1-yl)ethoxy]-1-methyl-3-(1-phenyl-1H-pyrazol-5-yl)pyridazin-4(1H)-one]",101%
6,"Cn1c(OCCOc2cn(CC3CC3)nc(-c3ccnn3-c3ccccc3)c2=O)nc2ccccc21 [Example 14, 1-(cyclopropylmethyl)-5-{2-[(1-methyl-1H-benzimidazol-2-yl)oxy]ethoxy}-3-(1-phenyl-1H-pyrazol-5-yl)pyridazin-4 (H)-one]",98%
7,"Cn1nccc1-c1nn(-c2ccccc2)cc(OCc2ccc3ccccc3n2)c1=O [Example 8, 3-(1-methyl-1H-pyrazol-5-yl)-1-phenyl-5-(quinolin-2-ylmethoxy)pyridazin-4(1H)-one]",68.4%
8,"O=c1c(OCc2ccc3ccccc3n2)cn(CC2CC2)nc1-c1ccnn1-c1ccccc1 [Example 17, 1-(cyclopropylmethyl)-3-(1-phenyl-1H-pyrazol-5-yl)-5-(quinolin-2-ylmethoxy)pyridazin-4(1H)-one]",60%
9,"Cn1c(CCCOc2cn(CC(F)(F)F)nc(-c3ccnn3-c3ccccc3)c2=O)nc2cccnc21 [Example 26, 5-[3-(3-methyl-3H-imidazo[4,5-b]pyridin-2-yl)propoxy]-3-(1-phenyl-1H-pyrazol-5-yl)-1-(2,2,2-trifluoroethyl)pyridazin-4(1H)-one]",101%
10,"Cn1cc(OCCCc2nc3cccnc3n2C)c(=O)c(-c2ccnn2-c2ccccc2)n1 [Example 12, 1-methyl-5-[3-(3-methyl-3H-imidazo[4,5-b]pyridin-2-yl)propoxy]-3-(1-phenyl-1H-pyrazol-5-yl)pyridazin-4(1H)-one]",102%
11,"O=c1c(OCCCc2cn3ccccc3n2)cn(CC2CC2)nc1-c1ccnn1-c1ccccc1 [Example 16, 1-(cyclopropylmethyl)-5-(3-imidazo[1,2-a]pyridin-2-ylpropoxy)-3-(1-phenyl-1H-pyrazol-5-yl)pyridazin-4(1H)-one]",98%
12,"Cn1c(CCCOc2cn(C3CCC3)nc(-c3ccnn3-c3ccccc3)c2=O)nc2ccccc21 [Example 20, 1-cyclobutyl-5-[3-(1-methyl-1H-benzimidazol-2-yl)propoxy]-3-(1-phenyl-1H-pyrazol-5-yl)pyridazin-4(1H)-one]",99%
13,"O=c1c(OCc2ccc3cccnc3c2)cn(CC2CC2)nc1-c1ccnn1-c1ccccc1 [Example 18, 1-(cyclopropylmethyl)-3-(1-phenyl-1H-pyrazol-5-yl)-5-(quinolin-7-ylmethoxy)pyridazin-4(1H)-one]",20%
14,"Cn1cc(OCCOc2nc3ccccc3n2C)c(=O)c(-c2ccnn2-c2ccccc2)n1 [Example 10, 1-methyl-5-{2-[(1-methyl-1H-benzimidazol-2-yl)oxy]ethoxy}-3-(1-phenyl-1H-pyrazol-5-yl)pyridazin-4(1H)-one]",95%
15,"Cn1c(CCCOc2cn(CC3CC3)nc(-c3ccnn3-c3ccccc3)c2=O)nc2ccccc21 [Example 3, 1-(cyclopropylmethyl)-5-[3-(1-methyl-1H-benzimidazol-2-yl)propoxy]-3-(1-phenyl-1H-pyrazol-5-yl)pyridazin-4(1H)-one]",98%
16,"Cn1cc(OCCCc2nc3ccccc3n2C)c(=O)c(-c2ccnn2-c2ccccc2)n1 [Example 1, 1-methyl-5-[3-(1-methyl-1H-benzimidazol-2-yl)propoxy]-3-(1-phenyl-1H-pyrazol-5-yl)pyridazin-4(1H)-one]",96%
17,"Cn1c(CCCOc2cn(CC(F)(F)F)nc(-c3ccnn3-c3ccccc3)c2=O)nc2ccccc21 [Example 25, 5-[3-(1-methyl-1H-benzimidazol-2-yl)propoxy]-3-(1-phenyl-1H-pyrazol-5-yl)-1-(2,2,2-trifluoroethyl)pyridazin-4(1H)-one]",96%
18,"O=c1c(OCCn2ccn3ccnc23)cn(CC2CC2)nc1-c1ccnn1-c1ccccc1 [Example 19, 1-(cyclopropylmethyl)-5-[2-(1H-imidazo[1,2-a]imidazol-1-yl)ethoxy]-3-(1-phenyl-1H-pyrazol-5-yl)pyridazin-4(1H)-one]",94%
19,"O=c1c(OCCN2CCn3c2nc2ccccc23)cn(CC(F)(F)F)nc1-c1ccnn1-c1ccccc1 [Example 27, 5-[2-(2,3-dihydro-1H-imidazo[1,2-a]benzimidazol-1-yl)ethoxy]-3-(1-phenyl-1H-pyrazol-5-yl)-1-(2,2,2-trifluoroethyl)pyridazin-4(1H)-one]",98%
20,"Cn1nccc1-c1nn(-c2ccccc2)cc(OCCc2ccc3ccccc3n2)c1=O [Example 7, 3-(1-methyl-1H-pyrazol-5-yl)-1-phenyl-5-(2-quinolin-2-ylethoxy)pyridazin-4(1H)-one]",96.8%
21,"Cn1c(CCCOc2cn(CC3CC3)nc(-c3ccnn3-c3ccccc3)c2=O)nc2cccnc21 [Example 13, 1-(cyclopropylmethyl)-5-[3-(3-methyl-3H-imidazo[4,5-b]pyridin-2-yl)propoxy]-3-(1-phenyl-1H-pyrazol-5-yl)pyridazin-4(1H)-one]",100%
22,"Cn1c(CCCOc2cn(C3CCC3)nc(-c3ccnn3-c3ccccc3)c2=O)nc2cccnc21 [Example 21, 1-cyclobutyl-5-[3-(3-methyl-3H-imidazo[4,5-b]pyridin-2-yl)propoxy]-3-(1-phenyl-1H-pyrazol-5-yl)pyridazin-4 (H)-one]",107%
23,"Cn1nccc1-c1nn(-c2ccccc2)cc(OCCCc2nc3ccccc3n2C)c1=O [Example 5, 5-[3-(1-methyl-1H-benzimidazol-2-yl)propoxy]-3-(1-methyl-1H-pyrazol-5-yl)-1-phenylpyridazin-4(1H)-one]",95.4%
24,"Cn1nccc1-c1nn(-c2ccccc2)cc(OCCN2CCn3c2nc2ccccc23)c1=O [Example 6, 5-[2-(2,3-dihydro-1H-imidazo[1,2-a]benzimidazol-1-yl)ethoxy]-3-(1-methyl-1H-pyrazol-5-yl)-1-phenylpyridazin-4(1H)-one]",97.2%
25,"O=c1c(OCCCc2cn3ccccc3n2)cn(C2CCC2)nc1-c1ccnn1-c1ccccc1 [Example 24, 1-cyclobutyl-5-(3-imidazo[1,2-a]pyridin-2-ylpropoxy)-3-(1-phenyl-1H-pyrazol-5-yl)pyridazin-4(1H)-one]",100%
26,"O=c1cnn(-c2cccc(C(F)(F)F)c2)cc1OCc1ccc2ccccc2n1 [Example 9, 5-(quinolin-2-ylmethoxy)-1-[3-(trifluoromethyl)phenyl]pyridazin-4(1H)-one]",6.5%
27,"O=c1c(OCCOc2ccc3ccccc3n2)cn(CC2CC2)nc1-c1ccnn1-c1ccccc1 [Example 15, 1-(cyclopropylmethyl)-3-(1-phenyl-1H-pyrazol-5-yl)-5-[2-(quinolin-2-yloxy)ethoxy]pyridazin-4(1H)-one]",13%
